Several values for one entry are separate records, joined by “and”; a condition that tells them apart may be missing. Identical values can stand only once. Like-named read-outs stand apart in the source and are kept apart here.
How the values were obtained:
M. Luteus (ATCC 499732) = experiment: Bacterial survival, toxin diazoxide and antidotes
Method: (§2) Bacteria were inoculated and cultured in nutrient agar for eighteen hours, using a shaking incubator at 140 r.p.m and 35° C. Medium contained 10 mM HEPES buffer at pH 7. Cells were centrifuged twice in Sorval RC-5 centrifuge 12,000 r.pm.×15 minutes at 4° C. and washed twice in 10 uM HEPES buffer. The resuspended cells were counted using a Hemocrit and diluted to a level of 5×10^1 cells per ml in 10 μM HEPES. The cells, the following toxins; methyl viologen (paraquat), methyl viologen (MPP^+), rotenone, daizoxide, streptozotocin and alloxan, and antidotes were added, reaching final volumes of 1 ml in Eppendorf tubes and placed on a rotator at room temperature. 10 μM diethylenetriaminepentaacetic acid was added to the samples to terminate the reactions at the specified times of either twenty or sixty minutes. 300 μL of cells were plated on Petri plates containing nutrient agar and incubated at 35° C. overnight. Colonies were counted after 20 hours. Percentage survival as compared with culture controls is calculated from the means of triplicates in each experimental group.

[1] = pKa by potentiometric titration; assay type: physicochemical; settings: aqueous solution, ionic strength 0.10, 25° C.
Method: PKa's were determined by standard potentiometric titration methods in aqueous solution with an ionic strength of 0.10 at 25° C. Values are reported as log K values of the equilibrium constant.

S. aureus (ATCC 29213) [2] = experiment: Bacterial survival, toxin diazoxide and antidotes; assay type: cell-based; settings: 60 minutes
Method: (§1) Medium contained 10 mM HEPES buffer at pH 7. […] Colonies were counted after 20 hours.

[3] = tested on: E. coli (GM 7359) alkA tag E. coli mutant; settings: 60 minutes
Method: as §2

S. aureus (ATCC 29213) [4] = experiment: Bacterial survival, toxin MPP^+ and antidotes; settings: 60 minutes
Method: as §2

[5] = tested on: E. coli (GM 7359) alkA tag E. coli mutant; experiment: Bacterial survival, toxin streptozotocin and antidotes; settings: 60 minutes
Method: as §2

[6] = tested on: E. coli (GM 7359) alkA tag E. coli mutant; settings: 60 minutes; remark: listed apart in the source
Method: as §2

E. coli (ATCC 35150) = assay type: cell-based
Method: as §1

[7] = 0.15 mM Diazoxide + 5 uM antidote
[8] = 0.2 mM Diazoxide + 1 uM antidote, T20
[9] = 0.2 mM Diazoxide + 2.5 uM antidote, T20
[10] = 0.2 mM Diazoxide + 2.5 uM antidote, T60
[11] = 0.2 mM Diazoxide + 5 uM antidote, T60
[12] = 0.2 mM Diazoxide + 10 uM antidote, T60
[13] = 100 uM Streptozotocin + 5 uM antidote
[14] = 0.2 mM Diazoxide + 1 uM antidote, T60
[15] = substance alone 200 uM, T20 (20 minutes)
[16] = substance alone 200 uM, T60 (60 minutes)
[17] = 0.2 mM Diazoxide + 200 uM antidote, T60

Compound: NCCSCCCSCCN [2,3,2-sulfur, 2-[3-(2-aminoethylthio)propylthio]ethylamine]
- Mean % Survival (M. Luteus (ATCC 499732); 0.2 mM Diazoxide + 12.5 uM antidote, T60): 32%
- Mean % Survival (M. Luteus (ATCC 499732); 0.2 mM Diazoxide + 100 uM antidote, T60): 67%
- Mean % Survival (M. Luteus (ATCC 499732); substance alone 100 uM, T20 (20 minutes)): 100%
- Mean % Survival (M. Luteus (ATCC 499732); substance alone 100 uM, T60 (60 minutes)): 100%

Compound: CNCCN(C)CCCN(C)CCNC [2,3,2-tetramethyl, N,N′,N″,N′″-tetramethyl 2,3,2-tetramine]
- pKa(1) [1]: 10.2
- pKa(2) [1]: 9.4
- pKa(3) [1]: 6.1
- pKa(4) [1]: 2.9

Compound: CC1=NS(=O)(=O)c2cc(Cl)ccc2N1 [Diazoxide, reference compound]
- Mean % Survival (S. aureus (ATCC 29213) [2]; substance alone 0.15 mM): 25%
- Mean % Survival (M. Luteus (ATCC 499732); substance alone 0.2 mM, T20 (20 minutes)): 22%
- Mean % Survival (M. Luteus (ATCC 499732); substance alone 0.2 mM, T60 (60 minutes)): 1%

Compound: (2-piperidylethyl)-{3-[(2-piperidylethyl)amino]propyl}amine [2,3,2-piperidine]
- pKa(1) [1]: 9.9
- pKa(2) [1]: 9.3
- pKa(3) [1]: 6.4
- pKa(4) [1]: 3.6
- Mean % Survival (S. aureus (ATCC 29213) [2]; 0.15 mM Diazoxide + 2.5 uM antidote): 100%
- Mean % Survival (S. aureus (ATCC 29213) [2]; [7]): 91%
- Mean % Survival (S. aureus (ATCC 29213) [2]; 0.15 mM Diazoxide + 10 uM antidote): 92%
- Mean % Survival (S. aureus (ATCC 29213) [2]; substance alone 10 uM): 100%
- Mean % Survival ([3]; 100 uM Rotenone + 2.5 uM antidote): 100%
- Mean % Survival ([3]; 100 uM Rotenone + 5 uM antidote): 100%
- Mean % Survival ([3]; 100 uM Rotenone + 20 uM antidote): 100%
- Mean % Survival ([3]; 100 uM Rotenone + 50 uM antidote): 100%
- Mean % Survival ([3]; substance alone 50 uM): 100%
- Mean % Survival (S. aureus (ATCC 29213) [4]; 0.25 mM MPP^+ + 1uM antidote): 54%
- Mean % Survival (S. aureus (ATCC 29213) [4]; 0.25 mM MPP^+ + 2uM antidote): 54%
- Mean % Survival (S. aureus (ATCC 29213) [4]; 0.25 mM MPP^+ + 5uM antidote): 69%
- Mean % Survival (S. aureus (ATCC 29213) [4]; 0.25 mM MPP^+ + 7uM antidote): 100%
- Mean % Survival (S. aureus (ATCC 29213) [4]; substance alone 7.5 uM): 100%
- Mean % Survival (M. Luteus (ATCC 499732); [8]): 81%
- Mean % Survival (M. Luteus (ATCC 499732); [9]): 81%
- Mean % Survival (M. Luteus (ATCC 499732); [10]): 41%
- Mean % Survival (M. Luteus (ATCC 499732); 0.2 mM Diazoxide + 5 uM antidote, T20): 100%
- Mean % Survival (M. Luteus (ATCC 499732); [11]): 100%
- Mean % Survival (M. Luteus (ATCC 499732); 0.2 mM Diazoxide + 10 uM antidote, T20): 100%
- Mean % Survival (M. Luteus (ATCC 499732); [12]): 100%
- Mean % Survival (M. Luteus (ATCC 499732); 0.2 mM Diazoxide + 20 uM antidote, T20): 100%
- Mean % Survival (M. Luteus (ATCC 499732); 0.2 mM Diazoxide + 20 uM antidote, T60): 100%
- Mean % Survival (M. Luteus (ATCC 499732); 0.2 mM Diazoxide + 50 uM antidote, T20): 100%
- Mean % Survival (M. Luteus (ATCC 499732); substance alone 50 uM, T20 (20 minutes)): 100%
- Mean % Survival (M. Luteus (ATCC 499732); substance alone 50 uM, T60 (60 minutes)): 100%
- Mean % Survival ([5]; 100 uM Streptozotocin + 2.5 uM antidote): 70%
- Mean % Survival [5, 13]: 100%
- Mean % Survival ([5]; 100 uM Streptozotocin + 20 uM antidote): 100%
- Mean % Survival ([5]; substance alone 20 uM): 100%

Compound: O=C1NC(=O)C(=O)C(=O)N1 [Alloxan, reference compound]
- Mean % Survival ([6]; substance alone 2 mM): 20%

Compound: C=C(C)[C@H]1Cc2c(ccc3c2O[C@@H]2COc4cc(OC)c(OC)cc4[C@@H]2C3=O)O1 [Rotenone, reference compound]
- Mean % Survival ([3]; substance alone 100 uM): 60%

Compound: NCCCCNCCCN [Spermidine, reference compound]
- Mean % Survival (M. Luteus (ATCC 499732); [8]): 100%
- Mean % Survival (M. Luteus (ATCC 499732); [14]): 96%
- Mean % Survival (M. Luteus (ATCC 499732); [9]): 100%
- Mean % Survival (M. Luteus (ATCC 499732); [10]): 100%
- Mean % Survival (M. Luteus (ATCC 499732); 0.2 mM Diazoxide + 200 uM antidote, T20): 100%
- Mean % Survival (M. Luteus (ATCC 499732); [15]): 100%
- Mean % Survival (M. Luteus (ATCC 499732); [16]): 100%
- Mean % Survival [5, 13]: 87%
- Mean % Survival ([5]; substance alone 5 uM): 97%

Compound: Vanadyl (1,4,8,11-tetraaza-1,4,8,11-tetrabicyclo[3.3.1]non-3-ylcyclotetradecane)(Cl)2 [Vanadium Cyclam Adamantane]
- Mean % Survival (M. Luteus (ATCC 499732); [14]): 100%
- Mean % Survival (M. Luteus (ATCC 499732); [11]): 100%
- Mean % Survival (M. Luteus (ATCC 499732); [12]): 100%
- Mean % Survival (M. Luteus (ATCC 499732); 0.2 mM Diazoxide + 50 uM antidote, T60): 100%
- Mean % Survival (M. Luteus (ATCC 499732); [17]): 100%
- Mean % Survival (M. Luteus (ATCC 499732); [15]): 100%
- Mean % Survival (M. Luteus (ATCC 499732); [16]): 100%

Compound: [2-(bicyclo[3.3.1]non-3-ylamino)ethyl](3-{2-(bicyclo[3.3.1]non-3-ylamino)ethyl]amino}propyl)amine [2,3,2-tetramine adamantane]
- Mean % Survival ([6]; 2 mM Alloxan + 1 uM antidote): 51%
- Mean % Survival ([6]; 2 mM Alloxan + 100 uM antidote): 69%
- Mean % Survival ([6]; substance alone 100 uM): 100%

Compound: C[n+]1ccc(-c2ccccc2)cc1 [MPP^+, reference compound]
- Mean % Survival (S. aureus (ATCC 29213) [4]; substance alone 0.1 mM): 31%
- Mean % Survival (S. aureus (ATCC 29213) [4]; substance alone 0.15 mM): 15%
- Mean % Survival (S. aureus (ATCC 29213) [4]; substance alone 0.2 mM): 6%
- Mean % Survival (S. aureus (ATCC 29213) [4]; substance alone 0.25 mM): 3%

Compound: CN1CCCN(C)CCN(C)CCCN(C)CC1 [cyclam-methylated, 1,4,8,11-tetraaza-1,4,8,11-tetramethylcyclotetradecane]
- pKa ([1]; read-out: pKa(1)): 9.7
- pKa ([1]; read-out: pKa(2)): 9.3
- pKa ([1]; read-out: pKa(3)): 3.1
- pKa ([1]; read-out: pKa(4)): 2.6

Compound: CN(N=O)C(=O)N[C@H]1C(O)O[C@H](CO)[C@@H](O)[C@@H]1O (some centres unmarked) [Streptozotocin, N-(methylnitrosocarbamoyl)-Dglucosamine, reference compound]
- Mean % Survival ([5]; substance alone 100 uM): 57%

Compound: NCCCNCCCCNCCCN [Spermine]
- Mean % Survival (E. coli (ATCC 35150)): 100% and 96% and 60%
- Mean % Survival (S. aureus (ATCC 29213) [2]; [7]): 71%
- Mean % Survival (S. aureus (ATCC 29213) [2]; substance alone 5 uM): 99%

Compound: N[C@@H](Cc1c[nH]cn1)C(=O)O [Histidine, reference compound]
- Mean % Survival (E. coli (ATCC 35150)): 30%
- Mean % Survival (E. coli (ATCC 35150); 0.5 mM Paraquat + 1.0 mM antidote, 60 minutes): 37%
- Mean % Survival (E. coli (ATCC 35150); substance alone 0.5 mM, 60 minutes): 100%
- Mean % Survival (E. coli (ATCC 35150); substance alone 1 mM, 60 minutes): 100%
- Mean % Survival (S. aureus (ATCC 29213) [2]; 0.15 mM Diazoxide + 500 uM antidote): 58%
- Mean % Survival (S. aureus (ATCC 29213) [2]; substance alone 0.5 mM): 100%
- Mean % Survival (S. aureus (ATCC 29213) [4]; 0.15 mM MPP^+ + 0.5 mM antidote): 64%
- Mean % Survival (S. aureus (ATCC 29213) [4]; substance alone 0.5 mM): 90%
- Mean % Survival (M. Luteus (ATCC 499732); [17]): 54%
- Mean % Survival (M. Luteus (ATCC 499732); [15]): 100%
- Mean % Survival (M. Luteus (ATCC 499732); [16]): 100%

From patent US20140057877A1, “Therapeutic polyamine compositions and their synthesis” (priority 2002, published 2014)
